Common to all, as to experiment: Transient transfection (transactivation) assay in CV-1 cells, GAL4-PPAR chimera, luciferase reporter
What all share (assay type): cell-based

Test [1] concerns the target T1, PPAR delta (Homo sapiens, UniProt Q03181).
T1 construct: expressed in transfected cells; host or cells: CV-1 cells
T1 sequence (Q03181 211-439 limits assumed): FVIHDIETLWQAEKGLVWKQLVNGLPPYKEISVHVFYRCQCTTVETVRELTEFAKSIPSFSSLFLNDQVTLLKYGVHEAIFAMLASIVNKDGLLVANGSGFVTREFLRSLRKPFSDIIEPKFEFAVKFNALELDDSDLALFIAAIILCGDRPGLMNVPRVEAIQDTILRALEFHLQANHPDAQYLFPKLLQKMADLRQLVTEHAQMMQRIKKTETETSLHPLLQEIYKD

Test [2] deals with T2, PPAR alpha (Homo sapiens, UniProt Q07869).
T2 construct: expressed in transfected cells; host or cells: CV-1 cells
T2 sequence (Q07869 239-466 limits assumed): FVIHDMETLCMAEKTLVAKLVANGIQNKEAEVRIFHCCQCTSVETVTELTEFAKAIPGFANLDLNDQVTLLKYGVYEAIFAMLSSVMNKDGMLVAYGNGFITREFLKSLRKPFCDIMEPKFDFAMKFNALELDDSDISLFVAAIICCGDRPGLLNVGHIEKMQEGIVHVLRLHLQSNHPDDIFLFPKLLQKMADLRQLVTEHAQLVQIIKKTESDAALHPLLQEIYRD
The essentials:
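GAL4 DNA-binding domain fused to PPAR ligand binding domain, co-transfected into CV-1 cells with a luciferase reporter carrying four or five GAL4 sites. Replated cells in phenol-red free DME with 5% delipidated calf serum were treated with compound or 1% DMSO for 20-24 hours; luciferase read for EC50 and efficacy.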

Test [3] concerns the target T3, PPAR gamma (Homo sapiens, UniProt P37231).
T3 construct: expressed in transfected cells; host or cells: CV-1 cells
T3 sequence (P37231 238-503 limits assumed): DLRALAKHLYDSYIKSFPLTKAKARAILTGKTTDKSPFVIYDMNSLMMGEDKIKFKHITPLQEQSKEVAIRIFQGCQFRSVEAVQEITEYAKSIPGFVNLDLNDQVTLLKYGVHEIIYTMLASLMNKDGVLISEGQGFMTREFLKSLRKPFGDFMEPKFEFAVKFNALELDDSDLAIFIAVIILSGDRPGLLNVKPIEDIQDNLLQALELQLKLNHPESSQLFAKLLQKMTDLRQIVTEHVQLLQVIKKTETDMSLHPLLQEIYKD

Molecules are shown by their SMILES. pEC50: −log10 of the molar value.

Consider `Cc1cc(CC(=O)O)cc(S(=O)(=O)N2CCN(c3cccc(Cl)c3)CC2)c1` [Example 171, {3-[4-(3-Chloro-phenyl)-piperazine-1-sulfonyl]-5-methyl-phenyl}-acetic acid], for which the pEC50 is 4.00 to 5.30 in test [1], under 4.00 in test [2] and 4.00 to 5.30 in test [3].
Turning to `Cc1cc(CC(=O)O)cc(S(=O)(=O)N2CCN(c3ccccc3F)CC2)c1` [Example 172, {3-[4-(2-Fluoro-phenyl)-piperazine-1-sulfonyl]-5-methyl-phenyl}-acetic acid], the pEC50 in test [1], in test [2] and in test [3] was under 4.00 throughout.
Turning to `Cc1cc(CC(=O)O)cc(S(=O)(=O)N2CCN(c3ccc(F)cc3)CC2)c1` [Example 173, {3-[4-(4-Fluoro-phenyl)-piperazine-1-sulfonyl]-5-methyl-phenyl}-acetic acid], the pEC50 in test [1] is 4.00 to 5.30; in test [2], under 4.00; in test [3], under 4.00.
As for `Cc1cc(CC(=O)O)cc(S(=O)(=O)N2CCN(c3ccccc3)CC2)c1` [Example 174, [3-Methyl-5-(4-phenyl-piperazine-1-sulfonyl)-phenyl]-acetic acid], the pEC50 in test [1], in test [2] and in test [3] was under 4.00 each time.
Turning to `Cc1ccc(S(=O)(=O)N2CCN(c3ccc(Cl)c(Cl)c3)CC2)cc1CC(=O)O` [Example 175, {5-[4-(3,4-Dichloro-phenyl)-piperazine-1-sulfonyl]-2-methyl-phenyl}-acetic acid], the pEC50 in test [1] is over 5.30; in test [2], 4.00 to 5.30; in test [3], 4.00 to 5.30.
Consider `Cc1ccc(S(=O)(=O)N2CCN(c3ccc(Cl)cc3)CC2)cc1CC(=O)O` [Example 176, {5-[4-(4-Chloro-phenyl)-piperazine-1-sulfonyl]-2-methyl-phenyl}-acetic acid], for which the pEC50 was over 5.30 in test [1], under 4.00 in test [2] and 4.00 to 5.30 in test [3].
Turning to `Cc1cccc(N2CCN(S(=O)(=O)c3ccc(C)c(CC(=O)O)c3)CC2C)c1` (stereo not drawn) [Example 177, [2-Methyl-5-(3-methyl-4-m-tolyl-piperazine-1-sulfonyl)-phenyl]-acetic acid], the pEC50 was 4.00 to 5.30 in test [1], under 4.00 in test [2] and 4.00 to 5.30 in test [3].
Take `Cc1ccc(S(=O)(=O)N2CCN(CCc3ccccc3)CC2)cc1CC(=O)O` [Example 178, [2-Methyl-5-(4-phenethyl-piperazine-1-sulfonyl)-phenyl]-acetic acid]: the pEC50 in test [1] was 4.00 to 5.30; in test [2], under 4.00; in test [3], 4.00 to 5.30.
In the case of `COc1ccc(N2CCN(S(=O)(=O)c3ccc(C)c(CC(=O)O)c3)CC2)cc1OC` [Example 179, {5-[4-(3,4-Dimethoxy-phenyl)-piperazine-1-sulfonyl]-2-methyl-phenyl}-acetic acid], the pEC50 in test [1], in test [2] and in test [3] was under 4.00 throughout.
Turning to `Cc1ccc(S(=O)(=O)N2CCN(c3ccc(F)cc3F)CC2)cc1CC(=O)O` [Example 180, {5-[4-(2,4-Difluoro-phenyl)-piperazine-1-sulfonyl]-2-methyl-phenyl}-acetic acid], the pEC50 was 4.00 to 5.30 in test [1], under 4.00 in test [2] and 4.00 to 5.30 in test [3].
In the case of `Cc1ccc(S(=O)(=O)N2CCN(c3ccccc3)CC2)cc1CC(=O)O` [Example 181, [2-Methyl-5-(4-phenyl-piperazine-1-sulfonyl)-phenyl]-acetic acid], the results for the pEC50 in test [1], in test [2] and in test [3] were 4.00 to 5.30, under 4.00 and 4.00 to 5.30, respectively.
For the compound `Cc1ccc(S(=O)(=O)N2CCN(c3ccc(C(F)(F)F)cn3)CC2)cc1CC(=O)O` [Example 182, {2-Methyl-S-[4-(5-trifluoromethyl-pyridin-2-yl)-piperazine-1-sulfonyl]-phenyl}-acetic acid], the pEC50 in test [1] is over 5.30; in test [2], 4.00 to 5.30; in test [3], over 5.30.
For the compound `Cc1ccc(S(=O)(=O)N2CCN(c3ccc(C(F)(F)F)cc3)CC2)cc1CC(=O)O` [Example 183, {2-Methyl-5-[4-(4-trifluoromethyl-phenyl)-piperazine-1-sulfonyl]-phenyl}-acetic acid], the pEC50 in test [1] was over 5.30; in test [2], 4.00 to 5.30; in test [3], 4.00 to 5.30.
On to `O=C(O)Cc1cccc(S(=O)(=O)N2CCC(c3ccc(Cl)cc3)CC2)c1` [Example 184, {3-[4-(4-Chloro-phenyl)-piperidine-1-sulfonyl]-phenyl}-acetic acid], for which the pEC50 in test [1] is 4.00 to 5.30; in test [2], under 4.00; in test [3] it was under 4.00.
In the case of `Cc1cc(CC(=O)O)cc(S(=O)(=O)N2CCC(c3ccc(Cl)cc3)CC2)c1` [Example 185, {3-[4-(4-Chloro-phenyl)-piperidine-1-sulfonyl]-5-methyl-phenyl}-acetic acid], the pEC50 in test [1] was 4.00 to 5.30; in test [2] it was under 4.00; in test [3] it was 4.00 to 5.30.
Turning to `O=C(O)CCc1cccc(S(=O)(=O)N2CCN(c3ccc(Cl)c(Cl)c3)CC2)c1` [Example 186, 3-{3-[4-(3,4-Dichloro-phenyl)-piperazine-1-sulfonyl]-phenyl}-propionic acid], the pEC50 in test [1] is over 5.30; in test [2] it was under 4.00; in test [3] it was 4.00 to 5.30.
As to `O=C(O)CCc1cccc(S(=O)(=O)N2CCN(c3ccc(Cl)cc3)CC2)c1` [Example 187, 3-{3-[4-(4-Chloro-phenyl)-piperazine-1-sulfonyl]-phenyl}-propionic acid], the pEC50 in test [1] is over 5.30; in test [2], under 4.00; in test [3], 4.00 to 5.30.
Take `O=C(O)COc1cccc(S(=O)(=O)N2CCN(c3ccc(Cl)c(Cl)c3)CC2)c1` [Example 188]: the pEC50 in test [1] was 4.00 to 5.30; in test [2], under 4.00; in test [3] it was under 4.00.
Turning to `CC(C)(Oc1cccc(S(=O)(=O)N2CCN(c3ccc(Cl)c(Cl)c3)CC2)c1)C(=O)O` [Example 189, 2-{3-[4-(3,4-Dichloro-phenyl)-piperazine-1-sulfonyl]-phenoxy}-2-methyl-propionic acid], the pEC50 is under 4.00 in test [1], under 4.00 in test [2] and 4.00 to 5.30 in test [3].
For `O=C(O)COc1cccc(S(=O)(=O)N2CCN(c3ccc(C(F)(F)F)cc3)CC2)c1` [Example 190, {3-[4-(4-Trifluoromethyl-phenyl)-piperazine-1-sulfonyl]-phenoxy}-acetic acid], the pEC50 is 4.00 to 5.30 in test [1], under 4.00 in test [2] and under 4.00 in test [3].
Turning to `CC(C)(Oc1cccc(S(=O)(=O)N2CCN(c3ccc(C(F)(F)F)cc3)CC2)c1)C(=O)O` [Example 191, 2-Methyl-2-{3-[4-(4-trifluoromethyl-phenyl)-piperazine-1-sulfonyl]-phenoxy}-propionic acid], the pEC50 in test [1], in test [2] and in test [3] was 4.00 to 5.30 each time.
Take `C[C@@H]1CN(c2ccc(OC(F)(F)F)cc2)C[C@H](C)N1S(=O)(=O)c1ccc(O)c(CCC(=O)O)c1` [Example 192, 3-{5-[2,6-Dimethyl-4-(4-trifluoromethoxy-phenyl)-piperazine-1-sulfonyl]-2-hydroxy-phenyl}-propionic acid]: the pEC50 in test [1] was 4.00 to 5.30; in test [2], under 4.00; in test [3], under 4.00.
As to `C[C@@H]1CN(c2ccc(C(F)(F)F)cn2)C[C@H](C)N1S(=O)(=O)c1ccc(O)c(CCC(=O)O)c1` [Example 193, 3-{5-[2,6-Dimethyl-4-(5-trifluoromethyl-pyridin-2-yl)-piperazine-1-sulfonyl]-2-hydroxy-phenyl}-propionic acid], the pEC50 in test [1] was 4.00 to 5.30; in test [2], under 4.00; in test [3] it was under 4.00.
Turning to `COc1ccc(S(=O)(=O)N2[C@H](C)CN(c3ccc(C(F)(F)F)cn3)C[C@@H]2C)cc1CCC(=O)O` [Example 194, 3-{5-[2,6-Dimethyl-4-(5-trifluoromethyl-pyridin-2-yl)-piperazine-1-sulfonyl]-2-methoxy-phenyl}-propionic acid], the negative-log EC50 (pEC50) was over 5.30 in test [1], under 4.00 in test [2] and under 4.00 in test [3].
For the compound `Cc1cc(CC(=O)O)cc(S(=O)(=O)N2[C@@H](C)CN(c3ccc(C(F)(F)F)cn3)C[C@@H]2C)c1` [Example 195, {3-[2,6(S,S)-Dimethyl-4-(5-trifluoromethyl-pyridin-2-yl)-piperazine-1-sulfonyl]-5-methyl-phenyl}-acetic acid], the pEC50 is over 5.30 in test [1], 4.00 to 5.30 in test [2] and 4.00 to 5.30 in test [3].
For `Cc1cc(S(=O)(=O)N2CCN(c3ccc(C(F)(F)F)cn3)CC2)cc(CC(=O)O)c1Br` [Example 196, {2-Bromo-3-methyl-5-[4-(5-trifluoromethyl-pyridin-2-yl)-piperazine-1-sulfonyl]-phenyl}-acetic acid], the pEC50 in test [1] was over 5.30; in test [2], 4.00 to 5.30; in test [3], over 5.30.

The values are drawn from patent US20050234046A1 (Kalypsys, Inc., priority 2004, published 2005).
